Values of other authors as cited in US12133913B2, “Methods of treating overactive bladder using trospium” (TARIS BIOMEDICAL LLC, priority 2018, dated 2024).
Counter-ions that a name gives are not always drawn. Like-named read-outs stand apart in the source and are kept apart here.

Tests used:
[1] = tested on: oral naïve overactive bladder patients
[2] = in vivo

O=C(O[C@H]1CN2CCC1CC2)N1CCc2ccccc2[C@@H]1c1ccccc1 [VESIcare®, solifenacin succinate]
Reduction in average daily incontinence episodes from baseline ([1]; oral treatment, oral naïve patients): 1.4

O=C(OC1CC2CCC(C1)[N+]21CCCC1)C(O)(c1ccccc1)c1ccccc1.[Cl-] (stereo not drawn) [oral trospium, 3-(2-hydroxy-2,2-diphenylacetoxy)spiro[bicyclo[3.2.1]octane-8,1′-pyrrolidin]-1′-ium chloride]
Predicted urine levels achieved with oral trospium [2]: 0.5 to 1 µg/mL

Cc1ccc(O)c([C@H](CCN(C(C)C)C(C)C)c2ccccc2)c1 [Detrol® LA, tolterodine tartrate]
Reduction in average daily incontinence episodes from baseline ([1]; in vivo, po): 0.8
